Assay results taken from publication PMC8745178, “Methyl 2-Halo-4-Substituted-5-Sulfamoyl-Benzoates as High Affinity and Selective Inhibitors of Carbonic Anhydrase IX” (International Journal of Molecular Sciences, 2021).

Tests used:
[1] = solubility observed visually and in absorption spectra; assay type: physicochemical; set-up: key: low solubility, LS
[2] = biological target: CAXII (Homo sapiens, UniProt O43570); test: fluorescent thermal shift assay (FTSA), CAXII; assay type: binding; conditions: 37 °C; for ΔGintr CAXII: converted from Kd_intr, independent of pH; for ΔGobs CAXII: converted from Kd_obs, pH 7.0, FTSA
Chain of CAXII (O43570 25-354): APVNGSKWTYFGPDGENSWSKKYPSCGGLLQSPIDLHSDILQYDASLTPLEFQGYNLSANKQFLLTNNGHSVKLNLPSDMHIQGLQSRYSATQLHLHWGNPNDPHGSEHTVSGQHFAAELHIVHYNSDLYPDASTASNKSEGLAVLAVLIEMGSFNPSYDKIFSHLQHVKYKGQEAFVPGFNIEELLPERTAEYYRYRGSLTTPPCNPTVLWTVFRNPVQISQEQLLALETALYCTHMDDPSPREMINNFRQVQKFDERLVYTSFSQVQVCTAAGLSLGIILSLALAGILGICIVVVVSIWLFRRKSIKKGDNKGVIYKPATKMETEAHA

[3] = biological target: CAIII (Homo sapiens, UniProt P07451); test: fluorescent thermal shift assay (FTSA), CAIII; assay type: binding; conditions: 37 °C; for ΔGintr CAIII: converted from Kd_intr, independent of pH; for ΔGobs CAIII: converted from Kd_obs, pH 7.0, FTSA
Chain of CAIII (P07451 whole entry): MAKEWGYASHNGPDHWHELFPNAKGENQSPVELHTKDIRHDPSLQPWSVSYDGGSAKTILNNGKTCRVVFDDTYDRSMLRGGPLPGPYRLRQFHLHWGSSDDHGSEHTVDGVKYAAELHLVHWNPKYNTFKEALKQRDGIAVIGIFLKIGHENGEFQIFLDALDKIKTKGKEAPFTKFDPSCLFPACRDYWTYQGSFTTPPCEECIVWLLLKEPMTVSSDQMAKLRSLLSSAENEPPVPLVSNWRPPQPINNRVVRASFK

[4] = biological target: CAXIII (Homo sapiens, UniProt Q8N1Q1); test: fluorescent thermal shift assay (FTSA), CAXIII; assay type: binding; conditions: 37 °C; for ΔGintr CAXIII: converted from Kd_intr, independent of pH; for ΔGobs CAXIII: converted from Kd_obs, pH 7.0, FTSA
Chain of CAXIII (Q8N1Q1 whole entry): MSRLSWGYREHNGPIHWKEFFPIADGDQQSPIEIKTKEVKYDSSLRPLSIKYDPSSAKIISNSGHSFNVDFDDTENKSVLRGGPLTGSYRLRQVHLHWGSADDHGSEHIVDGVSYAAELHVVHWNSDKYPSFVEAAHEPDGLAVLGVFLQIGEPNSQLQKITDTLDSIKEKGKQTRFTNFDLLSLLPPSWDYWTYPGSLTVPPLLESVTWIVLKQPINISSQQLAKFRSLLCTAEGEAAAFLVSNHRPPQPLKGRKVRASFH

[5] = biological target: CAIV (Homo sapiens, UniProt P22748); test: fluorescent thermal shift assay (FTSA), CAIV; assay type: binding; conditions: 37 °C; for ΔGintr CAIV: converted from Kd_intr, independent of pH; for ΔGobs CAIV: converted from Kd_obs, pH 7.0, FTSA
Chain of CAIV (P22748 19-312): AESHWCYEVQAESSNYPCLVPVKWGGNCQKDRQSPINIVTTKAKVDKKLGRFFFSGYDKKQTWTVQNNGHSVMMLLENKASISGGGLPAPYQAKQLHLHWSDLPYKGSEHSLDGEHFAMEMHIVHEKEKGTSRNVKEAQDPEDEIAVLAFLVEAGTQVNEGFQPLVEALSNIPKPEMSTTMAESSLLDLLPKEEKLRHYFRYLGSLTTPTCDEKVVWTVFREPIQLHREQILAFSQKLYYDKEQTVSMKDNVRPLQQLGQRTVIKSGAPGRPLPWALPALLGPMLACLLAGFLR

[6] = biological target: CAVII (Homo sapiens, UniProt P43166); test: fluorescent thermal shift assay (FTSA), CAVII; assay type: binding; conditions: 37 °C; for ΔGintr CAVII: converted from Kd_intr, independent of pH; for ΔGobs CAVII: converted from Kd_obs, pH 7.0, FTSA
Chain of CAVII (P43166 whole entry): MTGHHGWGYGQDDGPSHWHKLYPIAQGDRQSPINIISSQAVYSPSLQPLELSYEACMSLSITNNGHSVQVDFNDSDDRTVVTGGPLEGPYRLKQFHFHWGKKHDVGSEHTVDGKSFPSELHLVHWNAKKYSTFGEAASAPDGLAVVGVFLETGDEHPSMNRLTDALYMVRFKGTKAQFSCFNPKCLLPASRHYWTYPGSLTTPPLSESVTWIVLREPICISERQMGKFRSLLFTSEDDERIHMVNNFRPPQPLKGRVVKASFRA

[7] = biological target: CAI (Homo sapiens, UniProt P00915); test: fluorescent thermal shift assay (FTSA), CAI; assay type: binding; conditions: 37 °C; for ΔGintr CAI: converted from Kd_intr, independent of pH; for ΔGobs CAI: converted from Kd_obs, pH 7.0, FTSA
Chain of CAI (P00915 whole entry): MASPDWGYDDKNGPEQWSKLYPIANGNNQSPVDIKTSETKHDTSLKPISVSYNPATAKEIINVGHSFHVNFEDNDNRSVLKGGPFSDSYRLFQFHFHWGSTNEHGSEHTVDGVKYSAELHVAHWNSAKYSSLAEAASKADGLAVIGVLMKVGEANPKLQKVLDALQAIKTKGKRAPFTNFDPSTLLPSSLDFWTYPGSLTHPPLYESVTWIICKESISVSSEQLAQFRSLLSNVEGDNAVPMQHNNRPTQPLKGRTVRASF

[8] = biological target: CAVA (Homo sapiens, UniProt P35218); test: fluorescent thermal shift assay (FTSA), CAVA; assay type: binding; conditions: 37 °C; for ΔGintr CAVA: converted from Kd_intr, independent of pH; for ΔGobs CAVA: converted from Kd_obs, pH 7.0, FTSA
Chain of CAVA (P35218 39-305): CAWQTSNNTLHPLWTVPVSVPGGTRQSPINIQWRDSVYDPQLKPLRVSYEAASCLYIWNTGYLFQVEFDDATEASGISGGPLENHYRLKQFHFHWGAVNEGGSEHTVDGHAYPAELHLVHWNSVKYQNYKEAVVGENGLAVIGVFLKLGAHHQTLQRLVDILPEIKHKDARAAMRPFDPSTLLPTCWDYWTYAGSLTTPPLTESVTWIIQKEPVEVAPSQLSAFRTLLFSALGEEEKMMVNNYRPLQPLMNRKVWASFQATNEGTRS

[9] = biological target: CAXIV (Homo sapiens, UniProt Q9ULX7); test: fluorescent thermal shift assay (FTSA), CAXIV; assay type: binding; conditions: 37 °C; for ΔGintr CAXIV: converted from Kd_intr, independent of pH; for ΔGobs CAXIV: converted from Kd_obs, pH 7.0, FTSA
Chain of CAXIV (Q9ULX7 16-337): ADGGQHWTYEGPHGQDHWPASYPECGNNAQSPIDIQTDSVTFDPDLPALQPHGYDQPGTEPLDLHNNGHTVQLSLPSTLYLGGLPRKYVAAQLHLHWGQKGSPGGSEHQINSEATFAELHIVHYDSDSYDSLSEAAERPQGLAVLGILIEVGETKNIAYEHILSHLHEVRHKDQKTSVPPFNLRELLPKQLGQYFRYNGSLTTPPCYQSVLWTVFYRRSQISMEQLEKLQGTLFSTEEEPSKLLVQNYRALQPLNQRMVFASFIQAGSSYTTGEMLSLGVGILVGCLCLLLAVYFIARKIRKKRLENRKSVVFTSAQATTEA

[10] = biological target: CAVB (Homo sapiens, UniProt Q9Y2D0); test: fluorescent thermal shift assay (FTSA), CAVB; assay type: binding; conditions: 37 °C; for ΔGintr CAVB: converted from Kd_intr, independent of pH; for ΔGobs CAVB: converted from Kd_obs, pH 7.0, FTSA
Chain of CAVB (Q9Y2D0 34-317): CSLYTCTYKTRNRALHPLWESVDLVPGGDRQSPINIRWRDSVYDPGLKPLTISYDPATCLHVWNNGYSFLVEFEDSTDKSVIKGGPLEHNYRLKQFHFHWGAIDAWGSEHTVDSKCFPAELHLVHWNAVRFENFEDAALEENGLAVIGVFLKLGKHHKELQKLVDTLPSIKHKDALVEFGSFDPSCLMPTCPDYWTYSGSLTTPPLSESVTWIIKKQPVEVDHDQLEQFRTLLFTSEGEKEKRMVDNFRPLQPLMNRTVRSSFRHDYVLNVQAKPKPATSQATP

[11] = determination of pKa of the sulfonamide group by UV-VIS spectra at various pH; assay type: physicochemical; conditions: for f RSO2NH-, fraction of deprotonated sulfonamide: at pH 7.0, calculated from pKa; for pKa: calculated from spectra at various pH, 37 °C
[12] = biological target: CAVI (Homo sapiens, UniProt P23280); test: fluorescent thermal shift assay (FTSA), CAVI; assay type: binding; conditions: 37 °C; for ΔGintr CAVI: converted from Kd_intr, independent of pH; for ΔGobs CAVI: converted from Kd_obs, pH 7.0, FTSA
Chain of CAVI (P23280 18-308): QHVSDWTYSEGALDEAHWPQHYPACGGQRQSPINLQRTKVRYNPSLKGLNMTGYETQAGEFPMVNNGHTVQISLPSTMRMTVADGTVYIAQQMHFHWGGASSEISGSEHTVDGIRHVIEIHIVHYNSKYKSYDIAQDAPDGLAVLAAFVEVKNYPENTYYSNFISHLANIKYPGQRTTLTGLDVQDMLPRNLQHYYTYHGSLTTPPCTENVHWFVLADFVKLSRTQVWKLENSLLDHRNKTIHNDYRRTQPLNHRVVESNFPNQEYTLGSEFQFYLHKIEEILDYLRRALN

[13] = biological target: CAIX (Homo sapiens, UniProt Q16790); test: fluorescent thermal shift assay (FTSA), CAIX; assay type: binding; conditions: for ΔGobs CAIX: pH 7
[14] = biological target: CAII (Homo sapiens, UniProt P00918); test: fluorescent thermal shift assay (FTSA), CAII; assay type: binding; conditions: 37 °C; for ΔGintr CAII: converted from Kd_intr, independent of pH; for ΔGobs CAII: converted from Kd_obs, pH 7.0, FTSA

SMILES	ΔGintr CAXII [2] [kcal/mol]	ΔGobs CAXII [2] [kcal/mol]	ΔGintr CAIII [3] [kcal/mol]	ΔGobs CAIII [3] [kcal/mol]	ΔGintr CAXIII [4] [kcal/mol]	ΔGobs CAXIII [4] [kcal/mol]	ΔGintr CAIV [5] [kcal/mol]	ΔGobs CAIV [5] [kcal/mol]	ΔGobs CAVII [6] [kcal/mol]	ΔGintr CAI [7] [kcal/mol]	ΔGobs CAI [7] [kcal/mol]	ΔGintr CAXIV [9] [kcal/mol]	ΔGobs CAXIV [9] [kcal/mol]	ΔGintr CAVB [10] [kcal/mol]	ΔGobs CAVB [10] [kcal/mol]	f RSO2NH-, fraction of deprotonated sulfonamide [11] [%]	ΔGobs CAVI [12] [kcal/mol]	ΔGobs CAIX [13] [kcal/mol]	ΔGintr CAII [14] [kcal/mol]	ΔGobs CAII [14] [kcal/mol]	further results
COC(=O)c1cc(S(N)(=O)=O)c(S(=O)(=O)Cc2ccccc2)cc1Cl [Compound 7c, Methyl 4-benzylsulfonyl-2-chloro-5-sulfamoylbenzoate]	-11.9	-7.34	≥ -10.1	≥ -5.26	-9.51	-5.47	-12.2	-7.43	≥ -5.26	≥ -9.27	≥ -5.26	-11.9	-7.34	≥ -9.66	≥ -5.26	0.2	-5.5	-8.65	≥ -9.78	≥ -5.28	solubility [1]: LS; ΔGintr CAVII [6]: ≥ -9.8 kcal/mol; ΔGintr CAVA [8]: ≥ -9.46 kcal/mol; ΔGobs CAVA [8]: ≥ -5.26 kcal/mol; ΔGintr CAVI [12]: -10.9 kcal/mol; ΔGintr CAIX [13]: -13.4 kcal/mol
COC(=O)c1cc(S(N)(=O)=O)c(Cl)cc1S(=O)(=O)Cc1ccccc1 [Compound 9c, Methyl 2-benzylsulfonyl-4-chloro-5-sulfamoylbenzoate]	-13.2	-10.9	-11.6	-9.01	-13.6	-11.8	-12.5	-9.94	-12.2	-10.7	-8.87	-14.5	-12.2	-14.9	-12.7	5.9	-11.1	-12.2	-14	-11.8	pKa [11]: 8.2; ΔGintr CAVI [12]: -14.3 kcal/mol
COC(=O)c1cc(S(N)(=O)=O)c(S(=O)(=O)C2CCCCC2)cc1Br [Compound 8b, Methyl 2-bromo-4-cyclohexylsulfonyl-5-sulfamoylbenzoate]	≥ -9.94	≥ -5.26	≥ -10.3	≥ -5.26	-10.1	-5.88	-11	-6.17	≥ -5.26	≥ -9.42	≥ -5.26	≥ -9.94	≥ -5.26	≥ -9.8	≥ -5.26	0.1	≥ -5.26	-7.34	≥ -9.87	≥ -5.26	ΔGintr CAVII [6]: ≥ -9.94 kcal/mol; ΔGintr CAVA [8]: ≥ -9.61 kcal/mol; ΔGobs CAVA [8]: ≥ -5.26 kcal/mol; pKa [11]: 9.9; ΔGintr CAVI [12]: ≥ -10.9 kcal/mol; ΔGintr CAIX [13]: -51.2
COC(=O)c1cc(S(N)(=O)=O)c(Cl)cc1SCc1ccccc1 [Compound 5c, Methyl 2-benzylsulfanyl-4-chloro-5-sulfamoylbenzoate]	-13.1	-9.08	≥ -9.54	≥ -5.26	-13.4	-9.94			-9.8	-11.5	-8.08	-14.4	-10.4	-12.8	-8.99	0.4	-9.3	-11.1	-14.5	-10.6	solubility [1]: LS; ΔGintr CAVII [6]: -13.8 kcal/mol; ΔGintr CAIX [13]: -15.3 kcal/mol
